Data taken from the METLIN SMRT retention time set (Domingo-Almenara et al. 2019).

Experiment: gradient 5% acetonitrile 3 min, to 50% in 2 min, to 85% in 15 min, held 3 min, 100 µL/min
Conditions: column: Zorbax Extend-C18 2.1 x 50 mm; eluents: water / acetonitrile, 0.1% formic acid
Method in brief: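 Using water and acetonitrile that each contained 0.1% formic acid, mixtures of ~100 pure standards were separated at 100 μL/min on a Zorbax Extend-C18 column (2.1 × 50 mm, 1.8 μm). The HPLC fed a quadrupole time-of-flight mass spectrometer working in positive and negative ionization mode, with dead and dwell volumes of 40 μL and 900 μL. Data were acquired over 3 months. Retention time was read from computationally picked adduct peaks after manual inspection of each.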

| Structure (SMILES) | RP-LC retention time |
| --- | --- |
| COc1ccc(-c2cnn3c(C)cc(C)nc23)cc1S(=O)(=O)NCCN(C)C | 616 s |
| COc1ccccc1CNC(=O)Cn1nc(C)c2sc(-c3ccccc3)nc2c1=O | 884 s |
| COc1ccc(CCN2CC(=O)N3Cc4[nH]c5ccccc5c4C[C@H]3C2=O)cc1OC | 761 s |
| CCN1C(=O)c2cccnc2Sc2cc(CNC(=O)c3cccc(OC)c3)ccc21 | 762 s |
| COc1ccccc1NC(=O)Oc1cccc(OC(=O)c2ccccc2)c1 | 653 s |
| Clc1nc(NCCc2ccccc2)c2cn[nH]c2n1 | 827 s |
| COc1ccc2c(c1)C1(CCN(C(=O)Nc3cccc(C)c3)C1)C(=O)N2 (centres undefined) | 730 s |
| Cc1ccsc1C(=O)Nc1ccc(OCc2nnc(-c3ccc(Cl)cc3)o2)cc1 | 1010 s |
| O=C(Cc1cccc2ccccc12)Nc1cc(-c2ccccn2)no1 | 878 s |
| CCCN1CC(Oc2ccc(-c3noc(-c4cccnc4)n3)cc2)C1 | 621 s |
| CC(C)Cc1cc(-c2nnc3sc(-c4ccccc4F)nn23)n[nH]1 | 889 s |
| COc1ccc(-c2noc(C3CCCN3C(=O)c3cc(F)ccc3F)n2)cc1 (centres undefined) | 968 s |
| Cc1sc(-c2nnc(C3CC3)o2)cc1NC(=O)C1CC1 | 819 s |
| CC(=O)Nc1ccc(NC(=O)c2cccc(N3C(=O)NC4CC3(C)Oc3ccc(Cl)cc34)c2)cc1 (centres undefined) | 754 s |
| CCCOc1cc(N2CCN(S(=O)(=O)CCC)CC2)nc(C)n1 | 606 s |
| CCSc1nc2ccc(NS(=O)(=O)c3ccc4c(c3)CCC4)cc2s1 | 1110 s |
| Cc1ccc(CNC(=O)C2CCN(S(C)(=O)=O)c3cc(Cl)ccc3O2)cc1 (centres undefined) | 955 s |
| COc1cccc(-n2ccn3cc(-c4ccc5c(c4)OCO5)nc3c2=O)c1 | 775 s |
| Cc1nc(-c2ccccc2)nc2c1CC(=O)N2Cc1cccnc1 | 616 s |
| COCCCNC(=O)CSc1nccc2c1ccn2Cc1ccccc1 | 683 s |

| Structure (SMILES) | RP-LC retention time |
| --- | --- |
| COCc1cc(=O)n(CC(=O)Nc2cc(C)ccc2C)c(N2CCOCC2)n1 | 844 s |
| COc1ccc2[nH]c3c(c2c1)CCN1C(=O)N(c2ccccc2OC)C(=O)C31C (centres undefined) | 884 s |
| CCN1CCC2(CC1)N=C(c1ccc(Cl)cc1)CC(c1cccc(OC)c1O)N2 (centres undefined) | 621 s |
| CC(C)Cn1cc(CCNS(=O)(=O)c2ccc3c(c2)CCC3)c2cccnc21 | 1040 s |
| O=C(Cc1cccc(F)c1)Nc1nnc(C2CC(=O)N(c3ccc(Cl)cc3)C2)o1 (centres undefined) | 800 s |
| O=S(=O)(c1ccc(Br)s1)N1CCN(S(=O)(=O)C2CC2)CC1 | 854 s |
| COc1ccc(/C=C2\CCCc3ccccc3C2=O)cc1 | 1140 s |
| CCOC(=O)c1[nH]c(C)c(CN(Cc2ccco2)C(=O)c2ccc(N(C)C)cc2)c1C | 894 s |
| O=C(NCCCn1nc(-c2ccncc2)ccc1=O)c1ccc2c(c1)OCO2 | 555 s |
| CCNC(=O)N1CCN(CCCC(c2ccc(F)cc2)c2ccc(F)cc2)CC1 | 766 s |
| CCCN(CC1CCOC1)C(=O)c1ccc(F)c(F)c1 (centres undefined) | 787 s |
| Cc1cc(-c2nn3c(-c4cccc(F)c4)nnc3s2)c2ccccc2n1 | 887 s |
| C=CCN(Cc1nc(-c2cccc(C)c2)no1)C(=O)Nc1cccc(C)c1 | 1090 s |
| CCc1cc(C2CCCN2Cc2ccc(OC)c(O)c2)on1 (centres undefined) | 588 s |
| O=C1COc2ccccc2N1Cc1nc(-c2cccc(Br)c2)no1 | 1120 s |
| CCCOc1ccc(CNC(=O)c2snc(C(=O)NCc3cccc(OC)c3)c2N)cc1 | 1140 s |
| COc1ccc(C[C@@H]2NC[C@@H](O)[C@@H]2OC(C)=O)cc1 | 600 s |
| O=C(Cn1nc2c(Oc3ccc(Cl)cc3)nccn2c1=O)NCc1ccco1 | 804 s |
| CSc1ccccc1NC(=O)CCCn1cccc1 | 1000 s |

Continued, values first:

| RP-LC retention time | Structure (SMILES) |
| --- | --- |
| 712 s | COc1ccc(-c2cc(N3CCC(NC(=O)c4ccccc4OC)C3)n[nH]2)cc1 (centres undefined) |
| 754 s | Cc1ccc(NC(=O)C2CCN(S(=O)(=O)c3cc(C(=O)N4CCCCCC4)cs3)CC2)nc1 |
| 884 s | Cc1cc2c(cc1S(=O)(=O)N1CCCC1C(=O)Nc1ccc(Cl)cc1F)OC(C)C(=O)N2 (centres undefined) |
| 575 s | Cc1cc(N2CCN(C(=O)c3ccc(N(C)C)cc3)CC2)nc2nncn12 |
| 804 s | COCc1nc(N(C)Cc2ccccc2)ncc1C(=O)O |
| 592 s | CCNc1cc(N2CCCC(CCC(=O)NC(C)c3cn(C)nc3C)C2)ncn1 (centres undefined) |
| 591 s | Cc1ccc(CNC(=O)N2CC(N(C3CCOCC3)S(C)(=O)=O)C2)cc1 |
| 784 s | Cc1noc(C)c1Cc1ccc(C(=O)N2CCC(c3nc(CCOCC4CC4)no3)C2)o1 (centres undefined) |
| 598 s | COc1ccc(S(=O)(=O)N2CCCC2)cc1C(=O)Nc1cccc2cnccc12 |
| 578 s | COC(=O)c1c(C)[nH]c(C(=O)N2CCC(CC(=O)NCCC(C)N3CCCC3)CC2)c1C (centres undefined) |
| 646 s | O=c1n(Cc2ccccc2)nc2n1CCN(S(=O)(=O)c1cnc[nH]1)CC2 |
| 841 s | CCOC(=O)c1c(S(=O)(=O)N2CCC(C(=O)NCc3cccc(C)c3)CC2)c(C)n(C)c1C |
| 577 s | CCN1CCN(CCNC(=O)Cn2c3ccccc3c3cnn(C)c(=O)c32)CC1 |
| 694 s | CC(C)N1CC(CNC(=O)c2ccc(Cl)s2)C2(CCCCC2)C1 (centres undefined) |
| 741 s | O=C(NCC1CCOCC1)Nc1ccccc1Cl |
| 816 s | COc1ccccc1N1CCN(CCN(C(=O)C2CCCCC2)c2ccccn2)CC1 |
| 897 s | Cc1nc(-c2ccccc2)nn1C1CCN(S(=O)(=O)c2ccccc2C(F)(F)F)C1 (centres undefined) |
| 559 s | CCCn1ncc(N2CCC(C(=O)N3CCCCC3)CC2)cc1=O |
| 700 s | COC(=O)c1ccc(Cl)cc1NC(=O)N1CCN(C)c2ncccc21 |
| 745 s | Cn1nc(C(=O)N2CCCC(C(=O)Nc3ccccc3)C2)c2c1CCN(C(=O)C(C)(C)C)C2 (centres undefined) |
| 716 s | O=C(Cc1ccc(F)cc1)Nc1nnc(C2CC(=O)N(c3ccccc3)C2)o1 (centres undefined) |
| 832 s | CCn1c(=O)sc2cc(S(=O)(=O)N3CCC(C(=O)NCc4cccs4)CC3)ccc21 |
| 733 s | COC(=O)c1cccc(C(=O)NC2CCN(C(=O)c3cc(-c4cccs4)[nH]n3)CC2)c1 |
| 618 s | COc1cc(Br)c(C2C(C(=O)N3CCOCC3)=C(C)NC3=C2C(=O)CCC3)cc1OC (centres undefined) |
| 655 s | Cc1ncc2c(n1)CCN(C(=O)c1ccccc1Br)C2 |

| RP-LC retention time | Structure (SMILES) |
| --- | --- |
| 611 s | CS(=O)(=O)N1CCN(C(=O)C2CCCN(c3ccc(-c4ccc(F)cc4)nn3)C2)CC1 (centres undefined) |
| 596 s | CCc1nc2cc(N3CCC(C(=O)NC(C)c4cccnc4)CC3)cnc2nc1CC (centres undefined) |
| 847 s | CC1=C(c2ccc(C)cc2)S(=O)(=O)N=C1N1CCCN(C(=O)Cc2ccsc2)CC1 |
| 708 s | CCCNC(=O)C1CCN(S(C)(=O)=O)c2ccccc2O1 (centres undefined) |
| 572 s | CCC(C)NC(=O)Cn1nc(Cc2ccncc2)c2ccccc2c1=O (centres undefined) |
| 877 s | O=C(NCc1nc(-c2ccc(N3CCCCC3)cc2)no1)c1cccs1 |
| 800 s | CC(=O)N(Cc1nn(C)c2c1CN(S(=O)(=O)c1cc(F)ccc1F)CC2)c1ccccc1 |
| 682 s | O=C(NCC1CCN(C(=O)Nc2ccc(F)cc2)CC1)c1ccsc1 |
| 618 s | CCOC(=O)c1c(S(=O)(=O)NCC(=O)N2CCN(c3ccccn3)CC2)c(C)n(C)c1C |
| 567 s | COc1ccc(-c2ncn3c2C(=O)N(CC(=O)O)CC3)cc1 |
| 737 s | Cc1noc(/C=C\c2ccc(S(=O)(=O)NCC3CCCO3)cc2)c1NC(=O)C1CC1 (centres undefined) |
| 732 s | CC(C)C(=O)Nc1ccc(C2(C(=O)NCCN3CCc4ccccc4C3)CCCCC2)cc1 |
| 1090 s | CCOc1ccc(NC(=O)c2c(NC(C)=O)sc3c2CCCC3)cc1 |
| 636 s | COc1ccc(OC)c(S(=O)(=O)N2CCCC(C(=O)NCCO)C2)c1 (centres undefined) |
| 927 s | Cc1c(Cl)cccc1NC(=O)Cn1c(=O)n(-c2ccccc2)c(=O)c2c1cc(C)n2C |
| 681 s | Cc1ccc(CNC(=O)c2nsc(C(=O)N3CCN(c4ccccn4)CC3)c2N)cc1 |
| 859 s | COc1ccc(NC(=O)Cn2nc3c(Oc4ccccc4Cl)nccn3c2=O)cc1 |
| 810 s | Cc1ccc(C(=O)NCc2nn(C)c3ccccc23)cc1 |
| 745 s | Cc1ccc(CNC(=O)C2CCN(S(=O)(=O)c3cn(C(C)C)cn3)CC2)cc1 |
| 801 s | CC(=O)N1c2ccc(S(=O)(=O)NCc3ccc4c(c3)CCN4C(=O)C(C)C)cc2CC1C (centres undefined) |
| 587 s | CCn1c(=O)c2ccnn2c2ccc(C(=O)NC3CCCC3)cc21 |
| 642 s | O=C(O)C1CCCN1C(=O)c1ccc(N2C(=O)C3C4C=CC(C4)C3C2=O)cc1 (centres undefined) |
| 657 s | CCCNC(=O)N(C1CCOCC1)C1CCN(C(=O)c2cccs2)CC1 |
| 1180 s | Cc1sc(-c2noc(C3CCC3)n2)cc1S(=O)(=O)N1CCC(C(=O)N2CCCCCC2)CC1 |
| 842 s | COc1ccc(NC(=O)N2CCCC2c2nc(-c3cccc(F)c3)no2)cc1 (centres undefined) |
